Results from patent US12576107B2, “Methods of treating chronic inflammatory diseases” (METIMEDI PHARMACEUTICALS CO., LTD., priority 2018, dated 2026).
Entries after “also recorded” stand apart in the source; their conditions may differ.

Legend:
[1] = tested on: lactate dehydrogenase A; assay: Immunocytochemistry of lactate dehydrogenase A in ARPE-19 cells; type: cell-based, Human; settings: 2.5 mM, normoxia
Description: (§1) Human retinal pigment epithelium cell line, ARPE-19, was purchased from American Type Culture Collection (Manassas, VA, USA). The ARPE-19 cells were maintained in RPMI1640 containing 10% fetal bovine serum (Life Technologies, Gaithersburg, MD, USA), 100 IU/ml penicillin, and 100 μg/ml streptomycin (Welgene, Daegu, South Korea).
(§2) ARPE-19 and SK-N-SH cells were fixed on bio-coated coverslips (BD bioscience, San Jose, CA, USA) by 4% PFA for 20 min and then incubated with the primary antibodies for 15 h. The primary antibodies were as follows: HIF-1a (1:300, BD Biosciences, San Jose, CA, USA); LDH-A (1:300, Santa Cruz Biotechnology, Santa Cruz, CA, USA); LDH-B (1:300, Santa Cruz Biotechnology, Santa Cruz, CA, USA); NF-κB (1:300, Santa Cruz Biotechnology, Santa Cruz, CA, USA); TLR-4 (1:300, Santa Cruz Biotechnology, Santa Cruz, CA, USA); apoE (1:200, Santa Cruz Biotechnology, Santa Cruz, CA, USA). After PBS wash, the cells were incubated with anti-mouse secondary biotinylated antibody (1:2000, Vector Laboratorie, Burlingame, CA, USA) and visualized with streptavidin conjugated to Fluorescein (Vector Laboratorie, Burlingame, CA, USA). […] Confocal fluorescence images were obtained with confocal laser scanning microscopy (LSCM, Nikon A1+, Tokyo, Japan) under a 60× oil immersion lens.

[2] = tested on: hypoxia-mediated factors; assay: Liver CID in vitro experiment, Western blot in HepG2 cells; type: cell-based, Human; settings: 2.5 mM, HepG2 cells (liver epithelium)
Description: as §1, with “Hepatocellular carcinoma” for “retinal pigment epithelium”, “HepG2,” for “ARPE-19,”, “HepG2” for “ARPE-19”, “RPMI 1640” for “RPMI1640”
(§3) To prepare whole cell lysate, cells were lysed with lysis buffer (1% NP-40, 0.25% sodium deoxycholate, 150 mM NaCl, 1 mM EDTA, 1% Triton X-100, 50 mM Tris-HCl (pH 7.4), 10% Glycerol) with protease inhibitor cocktail (Roche, Basel, Switzerland) and phosphatase inhibitors (NA3VO4 1 mM, NaF 100 mM). Then, protein concentration was measured using the Bicinchoninic acid (BCA) assay kit (Thermo Scientific, Waltham, MA). Whole cell or nuclear lysates were transferred onto polyvinylidene fluoride membranes (Merck Millipore, Billerica, MA, USA). After blocking in 5% non-fat milk (Bio-Rad, Hercules, CA, USA) for 1 h, the membranes were incubated overnight at 4° C. with primary antibody diluted in TBST containing 100 mM Tris-HCl (pH 7.5), 1.5 M NaCl, and 0.5% Tween-20 obtained from Sigma-Aldrich, to which 5% BSA and 0.1% sodium azide (Sigma-Aldrich) had been added. Specific primary antibodies to HIF-1α (1:1000), HIF-2α (1:1000), LDH-A (1:1000), LDH-B (1:1000), TLR-4 (1:1000), NF-κB (1:1000), VEGF (1:1000), α-tubulin (1:1000), Actin (1:1000), and GAPDH (1:5000). […]

[3] = tested on: lactate dehydrogenase B; assay: Immunocytochemistry of lactate dehydrogenase B in ARPE-19 cells; type: cell-based, Human; settings: 2.5 mM, hypoxia
Description: as §1, §2

[4] = tested on: nonalcoholic steatohepatitis (NASH) mice; assay: Liver CID (NASH) in vivo experiment, methionine-choline deficient (MCD) diet; settings: 2 mg/kg subcutaneous B.I.D
Description: Female 5-week-old C57BL/6 mice were purchased form KOATEC (Pyeongtaek, South Korea) and were fed Methionine-Choline diet (MCD) for 4 weeks. When the mice weighed 15 g each, the mice were autopsied randomly to identify nonalcoholic steatohepatitis (NASH).
Mouse liver tissues (n=5) were dissected and fixed in 4% paraformaldehyde PBS solution for 15 h at 4° C. Fixed liver tissues were embedded in paraffin and sectioned at 10 μm. Slides were incubated at 55° C. for 2 h, and subsequently deparaffinized in xylene and rehydrated in a graded ethanol series and used for hematoxylin (Merck, Darmstadt, Germany) and eosin (H&E) staining (35). Paraffin sections (10 μm thick) stained with H&E were imaged using a Leica DM 1000 LED microscope (Leica Microsystems, Wetzlar, Germany).
Mouse liver tissues (n=5) were dissected and fixed in 4% paraformaldehyde PBS solution for 15 h at 4° C. Fixed tissues were embedded in paraffin and sectioned at 5 mm. Slides were incubated at 55° C. for 2 h, and subsequently deparaffinized in xylene and rehydrated in a graded ethanol series and re-fix in Bouin's solution for 1 hr at 56° C., remove the yellow color to rinse running tap water for 5-10 min and stained Biebrich scarlet-acid fuchsin solution for 5 min then in phosphomolybdic-phosphotungstic acid solution (ratio 1:1) for 30 minutes, and aniline blue solution and stain for 15 minutes. Rinse briefly in distilled water and in 1% acetic acid solution for 2-5 min. […] Mount with mounting medium. Imaged using a Leica DM 1000 LED microscope (Leica Microsystems, Wetzlar, Germany).
Animal Model for liver diseases. […] Female 5-week-old C57BL/6 mice were purchased form KOATEC (Pyeongtaek, South Korea) and were fed Methionine-Choline (MCD) diet for 4 weeks. […] Histological analysis. Mouse Liver tissues (n=5) were dissected and fixed in 4% paraformaldehyde PBS solution for 15 h at 4° C. Fixed liver tissues were embedded in paraffin and sectioned at 10 μm. Slides were incubated at 55° C. for 2 h, and subsequently deparaffinized in xylene and rehydrated in a graded ethanol series and used for hematoxylin (Merck, Darmstadt, Germany) and eosin (H&E) staining. Paraffin sections (10 μm thick) stained with H&E were imaged using a Leica DM 1000 LED microscope (Leica Microsystems, Wetzlar, Germany
Masson Trichrome Stain. Mouse Liver tissues (n=5) were dissected and fixed in 4% paraformaldehyde PBS solution for 15 h at 4° C. Fixed tissues were embedded in paraffin and sectioned at 5 mm. Slides were incubated at 55° C. for 2 h, and subsequently deparaffinized in xylene and rehydrated in a graded ethanol series and re-fix in Bouin's solution for 1 hr at 56° C., remove the yellow color to rinse running tap water at 5-10 min and stained Biebrich scarlet-acid fuchsin solution for 5 min than in phosphomolybdic-phosphotungstic acid solution (ratio 1:1) for minutes, and aniline blue solution and stain for 15 minutes. Rinse briefly in distilled water and in 1% acetic acid solution for 2-5 minutes. […] Mount with mounting medium. Imaged using a Leica DM 1000 LED microscope (Leica Microsystems, Wetzlar, Germany).
To induce NASH, mice were fed methionine-choline deficient (MCD) diet with polyunsaturated fat for 8 weeks. […] Results are MEAN±SD.

[5] = tested on: hypoxia-mediated factors; assay: Eye CID in vitro experiment, Western blot in ARPE-19 cells; type: cell-based, Human; settings: 2.5 mM; ARPE-19 cells (retinal pigment epithelium); normoxia and hypoxia
Description: as §1, §3

[6] = tested on: TLR-4; assay: Western blot of TLR-4 in HepG2 cells; type: cell-based, Human; settings: 2.5 mM; HepG2 cells (liver epithelium); hypoxia
Description: as §1, with “Hepatocellular carcinoma” for “retinal pigment epithelium”, “HepG2,” for “ARPE-19,”, “HepG2” for “ARPE-19”, “RPMI 1640” for “RPMI1640”
as §3

CC(O)C(=O)[O-].CC(O)C(=O)[O-].[Ca+2] (centres unmarked) [calcium lactate]
lactate dehydrogenase A, immunocytochemistry [1]: decreased | hypoxia-mediated factors, Western blot [2]: changed | lactate dehydrogenase B, immunocytochemistry [3]: increased | liver fibrosis (collagen accumulation) ([4]; Masson trichrome): not present | serum alanine aminotransferase (ALT) ([4]; P<0.001 vs. MCD): significantly decreased | serum aspartate aminotransferase (AST) ([4]; P<0.001 vs. MCD): significantly decreased | immune cell infiltration in the liver ([4]; histology): decreased | lipid droplets in the liver ([4]; histology): not observed; also recorded: not present | liver steatosis ([4]; histology): prevented | hypoxia-mediated factors, Western blot [5]: decreased | inflammatory factor (TLR-4), Western blot [6]: decreased
